Data reported in paper PMC6520677, “Marine Fungi from the Sponge Grantia compressa: Biodiversity, Chemodiversity, and Biotechnological Potential” (Marine Drugs, 2019).
Values after ≈ are worked out from the molar mass of the structure shown. Like-named read-outs stand apart in the source and are kept apart here.

What was measured:
[1] = test system: Staphylococcus aureus ATCC 29213; test: MIC, broth microdilution (CLSI); type: cell-based
[2] = test system: methicillin-resistant Staphylococcus aureus (MRSA) Monza-PFI; test: MIC, broth microdilution (CLSI); type: cell-based
[3] = test system: fluoroquinolone-resistant S. aureus Monza-FD1; test: MIC, broth microdilution (CLSI); type: cell-based, Staphylococcus aureus
[4] = test system: Enterococcus faecalis ATCC 29212; test: MIC, broth microdilution (CLSI); type: cell-based
[5] = test system: Streptococcus pneumoniae ATCC 49619; test: MIC, broth microdilution (CLSI); type: cell-based
[6] = test system: macrolide-resistant S. pneumoniae Monza-82; test: MIC, broth microdilution (CLSI); type: cell-based, Streptococcus pneumoniae; conditions: for sensitivity of the strain to the compound: S. pneumoniae Monza-82
[7] = test system: Pseudomonas aeruginosa ATCC 27853; test: MIC, broth microdilution (CLSI); type: cell-based
[8] = test system: Escherichia coli ATCC 25922; test: MIC, broth microdilution (CLSI); type: cell-based
[9] = test system: Staphylococcus aureus ATCC 29213; test: MBC determination (plating of MIC wells); type: cell-based
Method: (§1) Plates were incubated at 37 °C in aerobic conditions or in 5% CO2 atmosphere and checked for bacterial growth after 24 h.

[10] = test system: fluoroquinolone-resistant S. aureus Monza-FD1; test: MBC determination (plating of MIC wells); type: cell-based; conditions: Staphylococcus aureus
Method: as §1

[11] = test system: methicillin-resistant Staphylococcus aureus (MRSA) Monza-PFI; test: MBC determination (plating of MIC wells); type: cell-based
Method: as §1

[12] = test system: macrolide-resistant S. pneumoniae Monza-82; test: MBC determination (plating of MIC wells); type: cell-based, Streptococcus pneumoniae; conditions: for bactericidal activity: S. pneumoniae Monza-82 strain only; for MBC: Streptococcus pneumoniae
Method: as §1

[13] = test system: Mycobacterium tuberculosis; parameters: method as in ref 86 Ganihigama et al.; conditions: ref 86 Ganihigama et al.; cited from earlier work
S. aureus strains = test: MIC, summary in text for S. aureus strains; conditions: Staphylococcus aureus
Method: (§2) Representatives of Gram-positive and Gram-negative bacteria were selected for the antimicrobial susceptibility tests. Three Gram-positive reference strains (Staphylococcus aureus ATCC 29213, Streptococcus pneumoniae ATCC 49619, and Enterococcus faecalis ATCC 29212) and two Gram-negative reference strains (Escherichia coli ATCC 25922 and Pseudomonas aeruginosa ATCC 27853) were used. Furthermore, antibacterial activity of the isolated compounds was also assessed against recently isolated clinical strains, selected and characterized as resistant or multidrug-resistant (MDR), from the MicroMiB collection owned and maintained by the Laboratory of Clinical Microbiology and Virology of the University of Milano-Bicocca, Monza, Italy: a methicillin-resistant Staphylococcus aureus (MRSA) Monza-PFI, a fluoroquinolone-resistant S. aureus Monza-FD1, and a macrolide-resistant S. pneumoniae Monza-82.
(§3) MICs were determined following Clinical and Laboratory Standards Institute (CLSI) guidelines for the broth microdilution method [33]. […]
(§4) The plates were incubated at 37 °C for 18–24 h. After the incubation, each well was checked for the absence of bacterial pellets and the clearness of the solution; then, the MIC value (μg/mL), defined as the lowest concentration of antimicrobial agent causing visible inhibition of bacterial growth, was determined.

[14] = test system: influenza A virus strain A/Puerto Rico/8/34 (IAV); test: Plaque reduction assay (PRA) on MDCK cells; type: cell-based
[15] = test system: herpes simplex virus 1 (HSV-1) clinical isolate; test: Plaque reduction assay (PRA) on VERO cells; type: cell-based; conditions: 48 h p.i.
[16] = test system: Enterococcus faecalis ATCC 29212; test: MBC determination (plating of MIC wells); type: cell-based
Method: as §1

[17] = test system: reference and MRSA S. aureus strains; parameters: method as in PMID 23024574; conditions: low concentration tested; cited from earlier work
Micrococcus luteus = test system: Micrococcus luteus; parameters: method as in PMID 16261521; conditions: cited from earlier work
Klebsiella pneumoniae = test system: Klebsiella pneumoniae; parameters: method as in PMID 16261521; conditions: cited from earlier work
P. aeruginosa = test system: P. aeruginosa; parameters: method as in PMID 16261521; conditions: cited from earlier work
bacteria = test system: bacteria; parameters: method as in ref 20 Zin et al.; conditions: ref 20 Zin et al.; cited from earlier work
in vitro [18] = conditions: dog
Method: (§5) African green monkey kidney cells (VERO, ATCC-American Type Culture Collection CCL-81) and Madin Darby Canine Kidney cells (MDCK, ATCC® CRL-2936™) were propagated in Dulbecco’s modified Eagle medium (DMEM; Euroclone), supplemented with 10% fetal bovine serum (FBS; Euroclone), 2 mM L-glutamine, 1 mM sodium pyruvate, 100 U/mL penicillin, and 100 μg/mL streptomycin sulfate.
(§6) The plates were incubated for 48 h at 37 °C, and then 100 μL of CellTiter-Glo reagent (Promega) was added to lyse the cells and to determine cell viability according to the producer’s instructions.

in vitro [19] = conditions: African green monkey
Method: as §5, §6

[20] = test system: reference strains and multidrug-resistant isolates; test: Antibacterial activity, whole panel (MIC); conditions: concentrations tested 0.015–32 μg/mL
Method: as §2, §3, §4

bacteria tested = test: Bactericidal activity, whole panel (MBC); type: cell-based; conditions: most of the bacteria tested
Method: as §1

[21] = Cytotoxicity assay (CellTiter-Glo); conditions: dog
Method: as §5, §6

MDCK cells = test: Cytotoxicity assay (CellTiter-Glo); conditions: MDCK cells, lowest dose 12.5 µg/mL, 48 h
Method: as §5, §6

Gram-positive bacteria = test: MIC, summary in text for Gram-positive bacteria; conditions: majority of Gram-positive bacteria tested (except S. pneumoniae ATCC 49619)
Method: as §2, §3, §4

[22] = ATCC29213, S. aureus ATCC 29213, read-out: MIC
[23] = S. aureus Monza-PFI (MRSA), read-out: MIC
[24] = Staphylococcus aureus, S. aureus Monza-FD1 (fluoroquinolone-resistant), read-out: MIC
[25] = ATCC29212, E. faecalis ATCC 29212, read-out: MIC
[26] = ATCC49619, S. pneumoniae ATCC 49619, read-out: MIC
[27] = Streptococcus pneumoniae, S. pneumoniae Monza 82 (macrolide-resistant), read-out: MIC
[28] = ATCC27853, P. aeruginosa ATCC 27853, read-out: MIC
[29] = ATCC25922, E. coli ATCC 25922, read-out: MIC
[30] = ATCC29213, S. aureus ATCC 29213, read-out: MBC
[31] = S. aureus Monza-FD1 (fluoroquinolone-resistant), read-out: MBC
[32] = S. aureus Monza-PFI (MRSA), read-out: MBC
[33] = S. pneumoniae Monza 82 (macrolide-resistant), read-out: MBC
[34] = Influenza A virus, MDCK, 48 h, read-out: inhibition of replication of IAV

SMILES | MIC [1, 22] [µg/mL] | MIC [2, 23] [µg/mL] | MIC [3, 24] [µg/mL] | MIC [4, 25] [µg/mL] | MIC [5, 26] [µg/mL] | MIC [6, 27] [µg/mL] | MIC [7, 28] [µg/mL] | MIC [8, 29] [µg/mL] | MBC [12, 33] [µg/mL] | other results
COc1cc(O)cc2cc3c(c(O)c12)C(=O)C[C@](C)(O)C3 [Asperflavin (8), asperflavin] | 64 (≈ 222 µM) | 128 (≈ 444 µM) | 64 (≈ 222 µM) | > 128 | > 128 | 32 (≈ 111 µM) | > 128 | > 128 | 128 (≈ 444 µM) | MBC [9, 30]: > 128 µg/mL; MBC [10, 31]: > 128 µg/mL; MBC [11, 32]: > 128 µg/mL; bactericidal activity [12]: positive results; MIC [13]: 25 µg/mL (≈ 86.7 µM); MIC (S. aureus strains): 64 µg/mL (≈ 222 µM)
C=CC(C)(C)c1[nH]c2cc(CC=C(C)C)ccc2c1/C=C1\NC(=O)[C@H](C)NC1=O [Neoechinulin D (7), neoechinulin D] | > 128 | > 128 | > 128 | > 128 | > 128 | 64 (≈ 163 µM) | > 128 | > 128 | > 128 | sensitivity of the strain to the compound [6]: showed sensitivity; inhibition at 50 µg/mL [14, 34]: 70%; inhibition at 50 µg/mL ([15]; Human alphaherpesvirus 1, compound at 50 µg/mL, read-out: inhibition of HSV-1 replication): 100%; inhibition of HSV-1 replication ([15]; compound at 50 µg/mL): total inhibition
CCC/C=C/C=C/c1c(O)cc(CC=C(C)C)c(O)c1C=O [Dihydroauroglaucin (4), dihydroauroglaucin] | 128 (≈ 426 µM) | 128 (≈ 426 µM) | 128 (≈ 426 µM) | 64 (≈ 213 µM) | > 128 | 8 (≈ 26.6 µM) | > 128 | > 128 | 32 (≈ 107 µM) | MBC ([16]; ATCC29212, E. faecalis ATCC 29212, read-out: MBC): > 128 µg/mL; MBC [9, 30]: > 128 µg/mL; MBC [10, 31]: > 128 µg/mL; MBC [11, 32]: > 128 µg/mL; bactericidal activity [12]: positive results; inhibition of replication of IAV [14]: completely inhibited; inhibition at 25 µg/mL [14, 34]: 100%; antibacterial activity [17]: inactive; MIC (S. aureus strains): 128 µg/mL (≈ 426 µM)
CC[C@H]1OC(=O)[C@H](C)[C@@H](O[C@H]2C[C@@](C)(OC)[C@@H](O)[C@H](C)O2)[C@H](C)[C@@H](O[C@@H]2O[C@H](C)C[C@H](N(C)C)[C@H]2O)[C@](C)(O)C[C@@H](C)C(=O)[C@H](C)[C@@H](O)[C@]1(C)O [Erythromycin, erythromycin, reference compound] | 0.5 (≈ 0.681 µM) | 8 (≈ 10.9 µM) | 0.5 (≈ 0.681 µM) | 2 (≈ 2.73 µM) | 0.12 (≈ 0.164 µM) | 16 (≈ 21.8 µM) | – | – | – | –
CN(C)[C@@H]1C(O)=C(C(N)=O)C(=O)[C@@]2(O)C(O)=C3C(=O)c4c(O)cccc4[C@@](C)(O)[C@H]3C[C@@H]12 [Tetracycline, tetracycline, reference compound] | 0.12 (≈ 0.27 µM) | 1 (≈ 2.25 µM) | 1 (≈ 2.25 µM) | 8 (≈ 18 µM) | 0.12 (≈ 0.27 µM) | ≤ 0.06 | 8 (≈ 18 µM) | 1 (≈ 2.25 µM) | – | –
COc1cc(O)c2c(c1)C(=O)c1cc(C)cc(O)c1C2=O [Physcion (3), physcion] | > 32 | > 32 | > 32 | > 32 | > 32 | 16 (≈ 56.3 µM) | > 32 | > 32 | > 32 | sensitivity of the strain to the compound [6]: showed sensitivity; inhibition at 25 µg/mL [14, 34]: 80%; inhibition at 25 µg/mL ([15]; Human alphaherpesvirus 1, compound at 25 µg/mL, read-out: inhibition of HSV-1 replication): 100%; inhibition of HSV-1 replication ([15]; compound at 25 µg/mL): total inhibition; MIC (Micrococcus luteus): 200 µg/mL (≈ 704 µM); MIC (Klebsiella pneumoniae): 250 µg/mL (≈ 879 µM); MIC (P. aeruginosa): 200 µg/mL (≈ 704 µM); antibacterial activity (bacteria): no antibacterial activity
CNC(C)C1CCC(N)C(OC2C(N)CC(N)C(OC3OCC(C)(O)C(NC)C3O)C2O)O1 (stereo not shown) [Gentamicin, reference compound] | 0.5 (≈ 1.05 µM) | > 128 | 1 (≈ 2.09 µM) | > 128 | – | – | 1 (≈ 2.09 µM) | 0.5 (≈ 1.05 µM) | – | –
CCCCCCCc1c(O)cc(CC=C(C)C)c(O)c1C=O [Flavoglaucin (5), flavoglaucin] | > 32 | > 32 | > 32 | > 32 | > 32 | > 32 | > 32 | > 32 | – | CC50 at 48 h (in vitro [18]): < 12.5 µg/mL; CC50 at 48 h (in vitro [19]): < 12.5 µg/mL; antibacterial activity [20]: did not show antibacterial activity
C[C@@H]1NC(=O)[C@H](Cc2c[nH]c3ccccc23)NC1=O [Cyclo-L-Trp-L-Ala (10), cyclo-L-Trp-L-Ala] | > 128 | > 128 | > 128 | > 128 | > 128 | > 128 | > 128 | > 128 | – | –
C=CC(C)(C)c1[nH]c2c(CC=C(C)C)cc(CC=C(C)C)cc2c1C[C@@H]1NC(=O)[C@H](C)NC1=O [Echinulin (1), echinulin] | – | – | – | – | – | – | – | – | – | MIC ([1]; ATCC29213): > 128 µg/mL; MIC ([2]; MRSA): > 128 µg/mL; MIC ([3]; Staphylococcus aureus): > 128 µg/mL; MIC ([4]; ATCC29212): > 128 µg/mL; MIC ([5]; ATCC49619): > 128 µg/mL; MIC ([6]; Streptococcus pneumoniae): > 128 µg/mL; MIC ([7]; ATCC27853): > 128 µg/mL; MIC ([8]; ATCC25922): > 128 µg/mL
CC(=O)O[C@H]1C[C@@]2(C)[C@@H](C[C@@H](O)[C@H]3[C@@]4(C)CC[C@@H](O)[C@@H](C)[C@@H]4CC[C@@]32C)/C1=C(\CCC=C(C)C)C(=O)O [Fusidic acid, fusidic acid, reference compound] | 0.12 (≈ 0.232 µM) | – | – | 4 (≈ 7.74 µM) | 4 (≈ 7.74 µM) | – | – | – | – | –
C/C=C/C=C/CCc1c(O)cc(CC=C(C)C)c(O)c1C=O [Isodihydroauroglaucin (6), isodihydroauroglaucin] | 64 (≈ 213 µM) | – | – | 64 (≈ 213 µM) | > 128 | – | > 128 | > 128 | – | MIC ([2]; MRSA): 64 µg/mL (≈ 213 µM); MIC ([3]; Staphylococcus aureus): 32 µg/mL (≈ 107 µM); MIC ([6]; Streptococcus pneumoniae): 4 µg/mL (≈ 13.3 µM); MBC ([16]; ATCC29212): > 128 µg/mL; MBC ([9]; ATCC29213): 128 µg/mL (≈ 426 µM); MBC [10]: 64 µg/mL (≈ 213 µM); MBC ([11]; MRSA): 128 µg/mL (≈ 426 µM); MBC [12]: 16 µg/mL (≈ 53.3 µM); bactericidal activity (bacteria tested): bactericidal activity; CC50 at 48 h [21]: < 12.5 µg/mL; cell toxicity (not toxic = at least 70% cell viability) (MDCK cells): toxic; MIC values range (Gram-positive bacteria): 4 to 64 µg/mL
COc1cc(O)c2c(c1)C(=O)c1cc(C)c(C(=O)O)c(O)c1C2=O [Cinnalutein (9), cinnalutein] | > 128 | > 128 | 128 (≈ 390 µM) | > 128 | > 128 | 32 (≈ 97.5 µM) | > 128 | > 128 | > 128 | MIC ([3]; S. aureus Monza-FD1 (fluoroquinolone-resistant)): 128 µg/mL (≈ 390 µM); MIC ([6]; S. pneumoniae Monza 82 (macrolide-resistant)): 32 µg/mL (≈ 97.5 µM); MBC [10, 31]: > 128 µg/mL
